According to patent US20240216250A1, “COSMETIC PEPTIDES FOR IMPROVING SKIN REJUVENATION” (Lean Life Sciences, Inc., priority 2021, published 2024):
“Also recorded” adds a separate entry of the source.

Key:
DIO mice = experiment: Body weight gain in DIO mice: obesity progression model (OPM) and obesity model (OM); assay type: in vivo; details: for Prevention of body weight gain: pre-obese OPM mice on HFD; for Anti-obesity efficacy (body weight): oral administration
Description: Prior to oral administration, peptides were administered to DIO mice via intraperitoneal (IP) and subcutaneous (SC) injections.
In the first phase, peptides were tested on pre-obese mice that were being fed high fat diet (HFD) to induce obesity (obesity progression model, OPM). In the second phase, these peptides were given to mice that had already developed obesity (obesity model, OM). […] As the activity of these three peptides varies depending on the injection route and the disease status, all three peptides, GGR, RAK, and AKD, were tested by oral administration.
Prior to oral administration, GGR, RAK, AKD, full-length ATS, and scrambled RKG peptides were administered to OPM mice via IP and SC injections to further screen an ideal peptide composition. PBS was included as a vehicle group. GGR, RAK, and AKD peptides were discovered to impede body weight gain in OPM mice. GGR and RAK were effective when given IP injections and AKD was effective by SC injections (FIGS. 4 and 5).
The second phase signified the post-obesity stage, where the same methods from phase 1 were used on OM mice.
(§1) GGR, RAK, and AKD peptides were tested in OPM and OM mice by oral administration. […] In obesity progression, adipocytes increase in both number and size due to escalating lipid accumulation (Parlee, S. D., et al., Methods Enzymol 537, 93-122, (2014)). Using the methods described above, abdominal fat pads of GGR, RAK, AKD, or PBS-treated DIO mice were histologically analyzed. Epididymal fat tissues were harvested from two mice per experimental group. All samples were fixed in 4% paraformaldehyde, H&E-stained, and imaged. At a 10× magnification, adipocyte cell counting was performed on the digital slide images using an automated adipocyte counting macro with the ImageJ software. A default thresholding method was used and [cell] sizing boundaries of 40-40,000 were set. Limitations of the segmentation tool led to some erroneous selections or regions of interest (ROI), which were manually corrected by adding or erasing lines. The number of cells per representative field were then determined using the ROI manager in ImageJ. Two or three high power fields (hpf) per tissue and two tissue samples per group were analyzed to reduce variability. Average cell count for each group was calculated accordingly. Areas of all adipocytes of interest were measured using the ROI measurement tool (ImageJ) and average area per cell was calculated accordingly.

3T3-L1 cells = experiment: Fructose, glucose and sucrose concentration in adipocytes (3T3-L1 cell lysates, Fructose Assay Kit); assay type: cell-based, mouse
Description: (§2) Fructose concentration in 3T3-L1 cell lysates was measured using the Fructose Assay Kit (Abcam, Cambridge, UK). Six-well plates were seeded with 5×10^5 3T3-L1 cells/well one day before treating with 150 μM peptide. After 48 hours of treatment, the cells were harvested and fructose concentrations were assayed according to the manufacturer's instruction.
In order to confirm the effect of peptides on reducing the fructose level in adipocytes, three groups of adipocytes were prepared. Among the three groups, one group was treated with GGR, and another group was treated with RAK. The remaining group was not treated with any peptides and used as a control group. […] Fructose—an intermediate metabolite of glucose—was measured to further probe glucose metabolism. 3T3-L1 cells treated with either peptide had lower fructose concentrations than untreated cells (FIG. 1).
An additional group of adipocytes are treated with one of KGGRAKD, KGG, GGR, GRA, RAK, AKD, DKA, KAR, ARG, RGG, GGK, and DKARGGK in the same manner as Example 1-1.

3T3-L1 mature adipocytes = experiment: Lipid accumulation in 3T3-L1 adipocytes by Oil Red O staining, with cell count; assay type: cell-based, mouse; details: for Number and size of lipid droplets in adipocytes: Oil Red O, microscopy, peptides at 100 μM, three times per week for three weeks (Day 21), vs non-treated control; for Decrease in degree of lipid accumulation: 3T3-L1 mature adipocytes, quantitative Oil Red O analysis, Day 21 (H of FIG. 3); for Reduction of lipid accumulation: murine-based in vitro systems
Description: FIG. 3: Representative photomicrographs showing Oil Red O-stained mature adipocytes treated with peptides at 100 μM (Day 21). H: Quantitative analysis of the lipids accumulated in the adipocytes (Day 21). Control absorbance: 0.526 (Red line). I: Relative cell counts on day 21.
The effects of the minimal short peptides in blocking lipid accumulation in adipocytes were compared with their parent full-length peptide. After generating five different 3 amino acid fragments (KGG, GGR, GRA, RAK, and AKD) from the original ATS peptide (KGGRAKD (SEQ ID NO:1)), each peptide was administered to 3T3-L1 pre-adipocytes in five varying concentrations. Peptides were treated to the adipocytes three times per week for three weeks. Oil Red O staining was utilized to assess the lipid contents in mature adipocytes in culture. The morphological characteristics of 3T3-L1 mature adipocytes were observed by microscopy. […] Furthermore, the lipids were quantitatively analyzed.
The number of viable cells is counted prior to Oil Red O staining using Cell Counting Kit 8 (Dojindo). This cell viability study allows one to determine potential toxicities of the peptides and compensate for cell number variation-causing artifacts. Oil Red O is dissolved in isopropanol at […] to create a working solution. 12 ml of Oil Red O working solution is mixed with 8 ml dH2O and incubated for 10 minutes. This solution is then filtered using a 0.2 μm syringe filter. Adipocytes seeded on 96-well plates are washed with PBS twice. 10% formaldehyde is added for initial fixation and the plates are incubated for at least 30 minutes. The formaldehyde is removed and the cells are once again washed twice, this time with dH2O. 60% isopropanol is added to each well. The plates are incubated for 5 minutes. The isopropanol is removed from the wells and replaced with Oil Red O working solution. The plates are incubated for an additional 10 minutes. The Oil Red O solution is removed and washed four times with dH2O. Lastly, digital micrographs of the lipid droplets in adipocytes are taken using a light microscope. After the staining protocol, all plates are washed three times with 60% isopropanol. Each time, 5 minutes of gentle rocking was used. The Oil Red O is extracted with 100% isopropanol with gentle rocking for 5 minutes. 200 μl isopropanol per well is used as a background to measure absorbance at 492 nm using a BioTek microplate reader.

[1] = system: abdominal fat pads of DIO mice; experiment: Histological analysis of fat pads of DIO mice (adipocyte number and size); assay type: in vivo; details: epididymal fat
Description: FIG. 10. Histological analysis fat pads. An automated system detected and counted adipocytes (yellow line). Adipocyte number and size: average of 3 hpf images from 2 mice (total 6 images/group).
as §1
The primary function of adipocytes is to store energy in the form of lipids. The volume of lipid stored in an adipocyte cell increases as the third power of the diameter. Because mature adipocytes are composed of large lipid droplets that are surrounded by very thin cytoplasmic layers, the increase in volume of an adipocyte cell likely indicates increased lipid storage. Thus, smaller adipocyte size/area translates to reduced lipid accumulation.

skin cells [2] = experiment: Fructose, glucose and sucrose concentration in skin cells, same manner as Example 1-1; assay type: cell-based; details: Example 1-18, present tense
Description: as §2
An additional group of skin cells are treated with one of KGGRAKD, KGG, GGR, GRA, RAK, AKD, DKA, KAR, ARG, RGG, GGK, and DKARGGK in the same manner as Example 1-1.
An additional group of skin cells were treated with […] (SEQ ID NO: 5) in the same manner as Example 1-1.
(§3) An additional group of skin cells are treated with one of […] (SEQ ID NO: 3) and […] (SEQ ID NO: 4) in the same manner as Example 1-1.

skin cells [3] = experiment: Collagen and fibronectin levels in skin cells upon peptide treatment; assay type: cell-based; details: Example 1-18, at a particular concentration, present tense
Description: as §3
The fructose, glucose, and sucrose concentrations in the groups where the above peptides are treated are not affected (data not shown), while the extra cellular matrix molecules, collagen and fibronectin, are determined.

[4] = post-obese OM mice, IP injection
[5] = Examples 1-2 to 1-11, same manner as Example 1-1
[6] = 3T3-L1 cells, 150 μM peptide, 48 hours, vs untreated control (FIG. 1)
[7] = post-obese OM mice, SC injection

Q: For RKG [reference compound], which Anti-obesity effects (DIO mice; IP and SC studies, regardless of injection route or schedule) is on record?
A: no anti-obesity effects

Q: What about the “Prevention of body weight gain / body weight change” value (DIO mice; [4]) of the same substance?
A: did not show meaningful efficacy over the vehicle group

Q: And the “Prevention of body weight gain” value (DIO mice; IP injection)?
A: did not show meaningful efficacy over the vehicle group; also recorded: no anti-obese effects

Q: And the “Prevention of body weight gain” value (DIO mice; SC injection)?
A: no anti-obese effects

Q: DKA was tested. Which “Fructose concentration in adipocytes vs control group” value (3T3-L1 cells; [5]) did it give?
A: significantly lower than the control group

Q: KAR was tested. Which “Fructose concentration in adipocytes vs control group” value (3T3-L1 cells; [5]) did it give?
A: significantly lower than the control group

Q: For KGG, which “Fructose concentration in adipocytes vs control group” value (3T3-L1 cells; [5]) is on record?
A: significantly lower than the control group

Q: And the “Number and size of lipid droplets in adipocytes” value (shortened to “Number and size”) (3T3-L1 mature adipocytes)?
A: moderate differences in the morphology of lipid droplets

Q: For GRA, which “Fructose concentration in adipocytes vs control group” value (3T3-L1 cells; [5]) is on record?
A: significantly lower than the control group

Q: And the “Number and size” value (3T3-L1 mature adipocytes)?
A: moderate differences in the morphology of lipid droplets

Q: Which “Fructose concentration in adipocytes vs control group” value (3T3-L1 cells; [6]) does the source give for RAK here?
A: significantly lower than the control group

Q: And the “Decrease in degree of lipid accumulation” value (3T3-L1 mature adipocytes)?
A: approximately 20%

Q: What about the “Number and size” value (3T3-L1 mature adipocytes) of the same substance?
A: smaller than those in the non-treated control

Q: What about the “Reduction of lipid accumulation” value (3T3-L1 mature adipocytes) of the same substance?
A: effective in reducing lipid accumulation

Q: What about the “Prevention of body weight gain / body weight change” value (DIO mice; [4]) of the same substance?
A: positive effects on prevention of body weight gain

Q: And the “Prevention of body weight gain / body weight change” value (DIO mice; [7])?
A: effective

Q: What about the “Anti-obesity efficacy (body weight)” value (DIO mice; post-obese OM mice) of the same substance?
A: has anti-obesity efficacy

Q: And the “Prevention of body weight gain” value (DIO mice; IP injection)?
A: positive effects on prevention of body weight gain; also recorded: effective

Q: What about the “Anti-obesity efficacy (body weight)” value (DIO mice; pre-obese OPM mice) of the same substance?
A: efficacious over GGR; also recorded: has anti-obesity efficacy

Q: What about the “Average cell count per field” value ([1]; adipocytes, 10× magnification, ImageJ, rank among all experimental groups (FIG. 10)) of the same substance?
A: highest

Q: And the “Activity by histological analysis of the fat pads” value ([1]; H&E, DIO mice)?
A: more active than GGR; also recorded: highest efficacy

Q: What about the “Average adipocyte area per cell” value ([1]; ImageJ ROI, rank among all experimental groups (FIG. 10)) of the same substance?
A: lowest

Q: How did the “Fructose concentration in skin cells” value (skin cells [2]) turn out when ACSSSPSKHCGGGSESPLKRQG was run?
A: not affected

Q: And the “Glucose concentration in skin cells” value (skin cells [2])?
A: not affected

Q: What about the “Sucrose concentration in skin cells” value (skin cells [2]) of the same substance?
A: not affected

Q: And the “Collagen in skin cells vs control group” value (skin cells [3])?
A: significantly higher than the control group

Q: And the “Fibronectin in skin cells vs control group” value (skin cells [3])?
A: significantly higher than the control group

Q: AKD was tested. Which “Fructose concentration in adipocytes vs control group” value (3T3-L1 cells; [5]) did it give?
A: significantly lower than the control group

Q: And the “Decrease in degree of lipid accumulation” value (3T3-L1 mature adipocytes)?
A: approximately 20%

Q: What about the “Number and size” value (3T3-L1 mature adipocytes) of the same substance?
A: smaller than those in the non-treated control

Q: What about the “Reduction of lipid accumulation” value (3T3-L1 mature adipocytes) of the same substance?
A: effective in reducing lipid accumulation

Q: And the “Prevention of body weight gain” value (DIO mice; SC injection)?
A: best working peptide; also recorded: effective

Q: What about the “Anti-obesity efficacy (body weight)” value (DIO mice; pre-obese OPM mice) of the same substance?
A: efficacious over GGR

Q: How did the “Fructose concentration in adipocytes vs control group” value (3T3-L1 cells; [5]) turn out when ARG was run?
A: significantly lower than the control group

Q: GGK was tested. Which “Fructose concentration in adipocytes vs control group” value (3T3-L1 cells; [5]) did it give?
A: significantly lower than the control group

Q: GGR was tested. Which “Fructose concentration in adipocytes vs control group” value (3T3-L1 cells; [6]) did it give?
A: significantly lower than the control group

Q: And the “Decrease in degree of lipid accumulation” value (3T3-L1 mature adipocytes)?
A: approximately 20%

Q: And the “Number and size” value (3T3-L1 mature adipocytes)?
A: smaller than those in the non-treated control

Q: And the “Reduction of lipid accumulation” value (3T3-L1 mature adipocytes)?
A: effective in reducing lipid accumulation

Q: What about the “Prevention of body weight gain / body weight change” value (DIO mice; [4]) of the same substance?
A: positive effects on prevention of body weight gain

Q: And the “Prevention of body weight gain / body weight change” value (DIO mice; [7])?
A: effective

Q: And the “Prevention of body weight gain” value (DIO mice; IP injection)?
A: positive effects on prevention of body weight gain; also recorded: effective

Q: ACTGSTQHQGGGSEHGAMEI was tested. Which “Fructose concentration in skin cells” value (skin cells [2]) did it give?
A: not affected

Q: And the “Glucose concentration in skin cells” value (skin cells [2])?
A: not affected

Q: And the “Sucrose concentration in skin cells” value (skin cells [2])?
A: not affected

Q: And the “Collagen in skin cells vs control group” value (skin cells [3])?
A: significantly higher than the control group

Q: What about the “Fibronectin in skin cells vs control group” value (skin cells [3]) of the same substance?
A: significantly higher than the control group

Q: How did the “Fructose concentration in adipocytes vs control group” value (3T3-L1 cells; [5]) turn out when DKARGGK was run?
A: significantly lower than the control group

Q: Which “Fructose concentration in adipocytes vs control group” value (3T3-L1 cells; [5]) does the source give for RGG here?
A: significantly lower than the control group
